Laboratory results: patent US20260250273A1, “CRYSTAL FORM OF COMPOUND, AND PHARMACEUTICAL COMPOSITION AND USE THEREOF” (SHENZHEN KEYE LIFE TECHNOLOGIES CO., LTD, priority 2023, published 2026)

Key:
[1] = Suspension competition experiment between anhydrous crystal form A and anhydrous crystal form C (XRPD); type: physicochemical; details: for Relative stability of crystal forms concluded from suspension competition: room temperature to 50 °C
[2] = Hygroscopicity evaluation (DVS test, XRPD after DVS); type: physicochemical; details: for Sample weight change at 80% RH (%): DVS, 25 °C; for Whether crystal form changes before and after test: XRPD before and after DVS test; for Hygroscopicity: weight gain when humidity rises to 80% RH at 25 °C, Chinese Pharmacopoeia (2020 Edition)
[3] = Solid-form stability under long-term and accelerated conditions (HPLC purity, XRPD); type: physicochemical; details: 10 d; for Physical and chemical stability: 25 °C/60% RH and 40 °C/75% RH; for Purity (Area %): HPLC, initial purity 99.55 (form A), 99.84 (form C)
[4] = High-temperature stability (HPLC purity, XRPD); type: physicochemical; details: 60 °C, 10 d; for Purity (Area %): HPLC, initial purity 99.55 (form A), 99.84 (form C)
[5] = Heating experiment and variable temperature XRPD (VT-XRPD); type: physicochemical; details: heated to 120 °C
[6] = Crystal form conversion of wet samples on air-drying at room temperature (XRPD); type: physicochemical; details: for Crystal form after air-drying: air-dried at room temperature for 1 d; for Stability of the crystal form: crystalline wet solid
DHX33 = target: T1, DHX33 (Homo sapiens, UniProt Q9H6R0); details: background statement, no data; cited from earlier work
T1 sequence (Q9H6R0 1-707): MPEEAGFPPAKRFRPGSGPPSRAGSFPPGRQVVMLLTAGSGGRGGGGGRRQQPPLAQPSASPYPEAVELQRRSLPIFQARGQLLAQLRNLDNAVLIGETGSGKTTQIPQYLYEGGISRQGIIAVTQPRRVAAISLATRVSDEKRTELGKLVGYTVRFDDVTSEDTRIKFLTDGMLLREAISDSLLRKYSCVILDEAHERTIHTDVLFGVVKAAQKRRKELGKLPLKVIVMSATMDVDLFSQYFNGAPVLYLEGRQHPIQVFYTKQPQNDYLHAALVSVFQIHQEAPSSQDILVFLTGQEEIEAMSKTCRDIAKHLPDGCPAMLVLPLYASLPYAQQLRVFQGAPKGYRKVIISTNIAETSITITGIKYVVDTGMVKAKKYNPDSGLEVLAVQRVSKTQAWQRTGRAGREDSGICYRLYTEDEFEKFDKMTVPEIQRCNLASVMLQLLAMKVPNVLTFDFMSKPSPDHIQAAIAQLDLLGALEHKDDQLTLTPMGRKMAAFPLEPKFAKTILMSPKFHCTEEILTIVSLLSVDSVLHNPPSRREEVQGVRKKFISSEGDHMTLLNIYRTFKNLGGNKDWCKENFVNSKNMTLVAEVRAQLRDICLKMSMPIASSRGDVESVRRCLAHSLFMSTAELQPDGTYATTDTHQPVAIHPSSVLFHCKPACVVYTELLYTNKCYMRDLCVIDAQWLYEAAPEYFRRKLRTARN

[7] = listed as anhydrous crystal form A
[8] = listed as anhydrous crystal form C

Structure (SMILES) | Sample weight change at 80% RH (%) [2] | Whether crystal form changes before and after test [2] | Hygroscopicity [2] | Physical and chemical stability [3] | Crystal form Change ([3]; 25 °C/60% RH) | Purity (Area %) ([3]; 25 °C/60% RH) | Crystal form Change ([3]; 40 °C/75% RH) | Purity (Area %) ([3]; 40 °C/75% RH) | Crystal form Change [4] | Physical and chemical stability [4] | Purity (Area %) [4] | Stability of the crystal form [6] | Relative stability of crystal forms concluded from suspension competition [1] | Crystal form after air-drying [6] | also measured
COc1ccc2nc(NC(=O)c3cc(C)n(-c4sc(C)cc4C#N)c3C)[nH]c2c1 | – | – | – | – | – | – | – | – | – | – | – | – | – | – | Competition for 1 d (XPRD) ([1]; EtOH, 50 °C, saturated solution of Compound (1), resulting crystal form): crystal form B; Competition for 2 d (XPRD) ([1]; IPAc, RT, saturated solution of Compound (1), resulting crystal form): crystal form B
COc1ccc2nc(NC(=O)c3cc(C)n(-c4sc(C)cc4C#N)c3C)[nH]c2c1 (single isomer, unassigned) [Anhydrous crystal form A, 1-(3-cyano-5-methylthiophen-2-yl)-N-(6-methoxy-1H-benzo[d]imidazol-2-yl)-2,5-dimethyl-1H-pyrrole-3-carboxamide] | 3.24% | No | slight hygroscopicity | good physical and chemical stability | No | 99.67 Area % | No | 99.60 Area % | No | good physical and chemical stability | 99.63 Area % | – | more thermodynamically stable anhydrous form | – | Sample weight change at 80% RH (%) [2, 7]: 3.24%; Whether crystal form changes before and after test [2, 7]: no changes in crystal form; Crystal form in VT-XRPD analysis ([5]; XRPD in situ, then cooled to room temperature): crystal form remained unchanged; Crystal form in heating experiment ([5]; maintained for 5 min, cooled to room temperature): crystal form remained unchanged
COc1ccc2nc(NC(=O)c3cc(C)n(-c4sc(C)cc4C#N)c3C)[nH]c2c1 [compound of Formula (1), 1-(3-cyano-5-methylthiophen-2-yl)-N-(6-methoxy-1H-benzo[d]imidazol-2-yl)-2,5-dimethyl-1H-pyrrole-3-carboxamide] | – | – | – | – | – | – | – | – | – | – | – | – | – | – | Inhibiting the RNA helicase activity of DHX33 (DHX33): capable of inhibiting the RNA helicase activity of DHX33

Continued, in another order:

Sample weight change at 80% RH (%) [2] | Whether crystal form changes before and after test [2] | Hygroscopicity [2] | Physical and chemical stability [3] | Crystal form Change ([3]; 25 °C/60% RH) | Purity (Area %) ([3]; 25 °C/60% RH) | Crystal form Change ([3]; 40 °C/75% RH) | Purity (Area %) ([3]; 40 °C/75% RH) | Crystal form Change [4] | Physical and chemical stability [4] | Purity (Area %) [4] | Stability of the crystal form [6] | Structure (SMILES) | Relative stability of crystal forms concluded from suspension competition [1] | Crystal form after air-drying [6] | also measured
3.71% | No | slight hygroscopicity | good physical and chemical stability | No | 99.87 Area % | No | 99.90 Area % | No | good physical and chemical stability | 99.86 Area % | – | COc1ccc2nc(NC(=O)c3cc(C)n(-c4sc(C)cc4C#N)c3C)[nH]c2c1 (single isomer, unassigned) [Anhydrous crystal form C, 1-(3-cyano-5-methylthiophen-2-yl)-N-(6-methoxy-1H-benzo[d]imidazol-2-yl)-2,5-dimethyl-1H-pyrrole-3-carboxamide] | – | converted into the anhydrous crystal form A | Sample weight change at 80% RH (%) [2, 8]: 3.71%; Whether crystal form changes before and after test [2, 8]: no changes in crystal form
– | – | – | – | – | – | – | – | – | – | – | metastable form | COc1ccc2nc(NC(=O)c3cc(C)n(-c4sc(C)cc4C#N)c3C)[nH]c2c1 [crystal form B, 1-(3-cyano-5-methylthiophen-2-yl)-N-(6-methoxy-1H-benzo[d]imidazol-2-yl)-2,5-dimethyl-1H-pyrrole-3-carboxamide] | relatively more stable in the case of the wet sample | converted into the anhydrous crystal form A | –
– | – | – | – | – | – | – | – | – | – | – | metastable form | COc1ccc2nc(NC(=O)c3cc(C)n(-c4sc(C)cc4C#N)c3C)[nH]c2c1 [crystal form D, 1-(3-cyano-5-methylthiophen-2-yl)-N-(6-methoxy-1H-benzo[d]imidazol-2-yl)-2,5-dimethyl-1H-pyrrole-3-carboxamide] | – | converted into the anhydrous crystal form C | –
